In paper PMC12475007 (2025):

Tests used:
Test in all cases: fluorescence bead binding assay
Settings in all cases: binding buffer, room temperature, 1 h; immobilised compound (on beads)
[1] = system: P1 (DNA, aptamer) TGCGGAGCGAGGCCCTAGGCGTGGTGGCATTGATTTGTAT
[2] = system: P2 (DNA, aptamer) AGACGTGATGAAGTTCAATCAGGATGCAATGTATTAATGG
[3] = system: P3 (DNA, aptamer) CCAAGCATCGTCACATCACATTATCACACATTGTCGTCCGT
[4] = system: P4 (DNA, aptamer) TGTGCATTCGTGTGAATTAACTCGTCCACCAGAGCCCGTG
[5] = system: P5 (DNA, aptamer) ACATGTGTAGGCGGTTGGATGCATTATGAGATGGGACATG
[6] = system: L1 (DNA, aptamer) CAGTCTGCGCCGATTTCTCGCGGATTGCGACGAGGATACG
[7] = system: L2 (DNA, aptamer) CCCATCACCACATTGTCACATCACTCGTCACATACAGCCCG
[8] = system: L3 (DNA, aptamer) CACACATACGGGAGAGGCCCCATAAACTCATGCACGTCCTG
[9] = system: L4 (DNA, aptamer) TAAGCCCGGCTGAGATAACGGTTGATCCGAAGCTGGTTTT

| Kd [1] | Kd [2] | Kd [3] | Kd [4] | Kd [5] | Kd [6] | Kd [7] | Kd [8] | Kd [9] | SMILES |
| --- | --- | --- | --- | --- | --- | --- | --- | --- | --- |
| 0.1392 µM | 0.4842 µM | 0.03802 µM | 0.2081 µM | 0.05407 µM |  |  |  |  | CC(=O)O[C@H]1C(=O)[C@@]2(C)[C@H]([C@H](OC(=O)c3ccccc3)[C@]3(O)C[C@H](OC(=O)[C@H](O)[C@@H](NC(=O)c4ccccc4)c4ccccc4)C(C)=C1C3(C)C)[C@]1(OC(C)=O)CO[C@@H]1C[C@@H]2O |
|  |  |  |  |  | 0.1257 µM | 0.2842 µM | 0.2257 µM | 0.2857 µM | Nc1nc(=O)c2c([nH]1)NC[C@@H](CNc1ccc(C(=O)N[C@@H](CCC(=O)O)C(=O)O)cc1)N2C=O |
